Consider four compounds from patent publication US8487115B2, “Hydantoin derivatives of cyano-substituted chrysanthemic acid esters and their use in pest control” (Sumitomo Chemical Company, Limited, priority 2010, dated 2013).

The subject of the assay is German cockroaches. The assay can be described thus: Knockdown test on German cockroaches by spraying an oil solution. The format is in vivo, German cockroach (Blattella germanica). Conditions: 0.00156% (w/v) oil solution, 1.5 ml sprayed from 60 cm height, ten German cockroaches (5 male, 5 female), repeated twice. On the procedure:
Each of the present invention compounds (1) and (2) (0.00156 parts) produced in the aforementioned Production Examples was dissolved in 10 parts of dichloromethane and the resulting solution was mixed with 89.99844 parts of deodorized kerosine to prepare a 0.00156% (w/v) oil solution.
Ten German cockroaches (5 of each male and female) were released in a test container (measuring 8.75 cm in diameter and 7.5 cm in height, bottom area covered with a 16 mesh wire netting) coated with butter at an inner wall, and the container was disposed on the bottom of a test chamber (bottom surface measuring 46 cm and 46 cm, 70 cm in height).
From 60 cm in height above the container, 1.5 ml of the oil solution of each of the present invention compounds (1) and (2) was sprayed using a spray gun (spray pressure: 0.4 kg/cm^2). Thirty seconds after spraying, the container was removed from the test chamber. After a given time, the number of knockdowned cockroaches was counted and a knockdown rate was determined (repeated twice). The knockdown rate was calculated by the following equation. Knockdown rate (%)=(number of knockdowned cockroaches/number of test cockroaches)×100
For comparison, a test was carried out in the same manner as described above, except that 2,5-dioxo-3-(2-propynyl)imidazolidinylmethyl=(1R)-trans-3-(2-methyl-1-propenyl)-2,2-dimethylcyclopropane carboxylate (compound described in “Pestiside Science”, 1979, 10, p. 291, hereinafter referred to as the comparative compound (1)) represented by the following formula: […]
For `C#CCN1CC(=O)N(COC(=O)[C@@H]2[C@@H](/C=C(C#N)/C=C/C)C2(C)C)C1=O` [Present invention compound (2), 2,5-dioxo-3-(2-propynyl)imidazolidinylmethyl=(1R)-trans-3-[(1Z,3E)-2-cyano-1,3-pentadienyl]-2,2-dimethylcyclopropane carboxylate], the “Knockdown rate (%) after 2 minutes” value stood at 100%.

With `C#CCN1CC(=O)N(COC(=O)[C@@H]2[C@@H](/C=C(\C#N)C=C)C2(C)C)C1=O` [Present invention compound (1), 2,5-dioxo-3-(2-propynyl)imidazolidinylmethyl=(1R)-trans-3-[(1Z)-2-cyano-1,3-butadienyl]-2,2-dimethylcyclopropane carboxylate], the “Knockdown rate (%) after 2 minutes” value amounted to 95%. For the compound `C#CCN1CC(=O)N(COC(=O)[C@@H]2[C@@H](/C=C(\C)C=C)C2(C)C)C1=O` [comparative compound (2), 2,5-dioxo-3-(2-propynyl)imidazolidinylmethyl=(1R)-trans-3-[(1E)-2-methyl-1-butadienyl)-2,2-dimethylcyclopropane carboxylate], the “Knockdown rate (%) after 2 minutes” value is listed as 10%. With `C#CCN1CC(=O)N(COC(=O)[C@@H]2[C@@H](C=C(C)C)C2(C)C)C1=O` [Comparative compound (1), 2,5-dioxo-3-(2-propynyl)imidazolidinylmethyl=(1R)-trans-3-(2-methyl-1-propenyl)-2,2-dimethylcyclopropane carboxylate], the “Knockdown rate (%) after 2 minutes” value was 45%.
